Data on two molecules can be found in patent US6218519A, “Compounds and methods for the selective treatment of cancer and bacterial infections” (Pro-Neuron, Inc., priority 1996, dated 2001).

In general, half-life refers to how long it takes for the measured level to halve. The low end stands for rapid decline, the high end for slow decline.

The test system of one data set is carcinoma cells. As to conditions: glucuronide versus parent epirubicin; cited from earlier work.
The next data set deals with A-375 (human melanoma). Nature of the data set: Growth inhibition studies, crystal violet staining, 72 hr. It counts as cell-based. As to conditions: A-375, 72 h. From the text: Growth Inhibition Studies. […] cell lines: A-375 (human melanoma), LSl174T (colon carcinoma), ME 180 (cervical carcinoma), SK-OV-3 (ovarian carcinoma), and BT-474 (breast carcinoma) were routinely grown in […] Minimal Essential Medium (MEM, Gibco Inc.) containing 10% fetal bovine serum albumin (Atlanta Biologics). Cells were passaged weekly by trypsinization (Gibco) followed by plating at reduced density (50,000 cells/ml). They were routinely tested and found to be free of mycoplasma contamination. Cells were harvested by trypsinization and plated in 96 well plates at a density of 5,000 per well in 100 μl of MEM culture media. Cells were allowed to adhere by incubation for 24 hr at 37° C. in humidified 5% CO2. The wells containing log-phase cells were treated with complete MEM containing serial dilutions of N-[(4"RS-4"-Ethoxy-4"-β-D-glucopyranurongloxy)butyl]daunorubicin (sodium salt) 10b at concentrations ranging from 10^-5 to 10^-14 M Each well also contained a 50-fold unit excess of β-glucuronidase (i.e., 50 units of enzyme per βmole of substrate). Control reactions were run with 10b in the absence of β-glucuronidase, daunomycin alone, and daunomycin in the presence β-glucuronidase. […] Cell-bound dye was solubilized with Sorenson's Buffer (0.1 M sodium citrate, pH 4.2-ethanol, 1:1, v/v) and the wells were read on an ELISA microplate autoreader at 540 nm. […]

The target of data set [1] is β-Glucuronidase (E. Coli) (EC 3. 2. 1. 31) (Escherichia coli, UniProt P05804). In words: in vitro. As to conditions: beta-glucuronidase, phosphate buffer, pH 7.4, half-life for the disappearance of 10b.

Structures can show the parent of a compound that is named as a salt. Where two headings read alike, the source gives them in different places.

Sequence of β-Glucuronidase (E. Coli) (EC 3. 2. 1. 31) (P05804 whole entry): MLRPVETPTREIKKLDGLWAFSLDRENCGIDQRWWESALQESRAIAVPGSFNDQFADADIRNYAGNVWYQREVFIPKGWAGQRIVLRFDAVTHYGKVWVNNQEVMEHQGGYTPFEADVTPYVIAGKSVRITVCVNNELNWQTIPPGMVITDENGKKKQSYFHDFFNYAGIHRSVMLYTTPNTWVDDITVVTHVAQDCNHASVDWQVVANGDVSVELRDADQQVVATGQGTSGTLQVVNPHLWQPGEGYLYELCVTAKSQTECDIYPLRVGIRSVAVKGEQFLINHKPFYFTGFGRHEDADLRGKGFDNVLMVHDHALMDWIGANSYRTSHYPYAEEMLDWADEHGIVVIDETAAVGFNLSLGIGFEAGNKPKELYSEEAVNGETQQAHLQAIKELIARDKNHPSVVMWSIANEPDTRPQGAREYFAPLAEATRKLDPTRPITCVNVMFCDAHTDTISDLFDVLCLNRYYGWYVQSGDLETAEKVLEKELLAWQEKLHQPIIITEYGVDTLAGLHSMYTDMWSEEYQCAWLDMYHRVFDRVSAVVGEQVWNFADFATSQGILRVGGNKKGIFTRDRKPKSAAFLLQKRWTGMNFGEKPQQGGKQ

Take `COc1cccc2c1C(=O)c1c(O)c3c(c(O)c1C2=O)C[C@@](O)(C(=O)CO)C[C@@H]3O[C@H]1C[C@H](N)[C@@H](O[C@@H]2O[C@H](C(=O)O)[C@@H](O)[C@H](O)[C@H]2O)[C@H](C)O1` [glucuronide of epirubicin]: the “detoxification of the parent drug” value in the data set on carcinoma cells was “up to 1000 fold”.

As for `CCOC(CCCN[C@H]1C[C@H](O[C@H]2C[C@](O)(C(C)=O)Cc3c(O)c4c(c(O)c32)C(=O)c2c(OC)cccc2C4=O)O[C@@H](C)[C@H]1O)O[C@@H]1O[C@H](C(=O)O)[C@@H](O)[C@H](O)[C@H]1O` (stereo partly drawn) [Compound 10b, N-[(4"RS)-4"-Ethoxy-4"-(β-D-glucopyranuronyloxy)butyl]daunorubicin (Sodium salt)], the IC50 in the data set on A-375 (human melanoma) (read-out: IC50 (drug concentration that inhibited cell growth by 50%), A375 cell line, in the absence of β-glucuronidase, 72 hr) was 200 ng/mL; in the data set with A-375 (human melanoma) (read-out: IC50 (drug concentration that inhibited cell growth by 50%), A375 cell line, in the presence of glucuronidase (50 units of enzyme per µmole of substrate), 72 hr), 0.02 ng/mL. Also, the half-life at 100 µM in data set [1] is 8.1 h; in data set [1] (10-fold enzyme excess (10 units of enzyme per µmol of substrate), 0.05 M potassium phosphate buffer pH 7.4) it was 6.9 h; in data set [1] (20-fold enzyme excess (20 units of enzyme per µmol of substrate), 0.05 M potassium phosphate buffer pH 7.4), 2 h.
